Data taken from ChEMBL document CHEMBL1201862, “PubChem BioAssay data set” (2004).
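96-well plates; 48 h exposure; 5 concentrations. Endpoints by linear interpolation between flanking doses. Not reached: highest tested concentration assigned. The concentration for 50% growth inhibition is given as GI50.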 Calls of active or inactive are those of the source. Cut-off read from the data, not from the text of the source: active = GI50 up to about 1.1 µM and inactive = higher.

How the values were obtained:
Assay in all cases: NCI-60 cell line screen, 48 h
HT-29 = tested on: HT-29
BT-549 = tested on: BT-549
Malme-3M = tested on: Malme-3M
Hs-578T = tested on: Hs-578T
786-0 = tested on: 786-0
CAKI-1 = tested on: CAKI-1
SF-539 = tested on: SF-539
DU-145 = tested on: DU-145
SF-295 = tested on: SF-295
MDA-MB-435 = tested on: MDA-MB-435
SNB-75 = tested on: SNB-75
U-251 = tested on: U-251
SNB-19 = tested on: SNB-19
SK-MEL-2 = tested on: SK-MEL-2
HCT-116 = tested on: HCT-116
PC-3 = tested on: PC-3
T47D = tested on: T47D
A549 = tested on: A549
ACHN = tested on: ACHN
SN12C = tested on: SN12C
HCC 2998 = tested on: HCC 2998
LOX IMVI = tested on: LOX IMVI
NCI-H522 = tested on: NCI-H522
KM12 = tested on: KM12
TK-10 = tested on: TK-10
HOP-62 = tested on: HOP-62
MCF7 = tested on: MCF7
UACC-257 = tested on: UACC-257
MDA-N = tested on: MDA-N
SW-620 = tested on: SW-620
SK-MEL-5 = tested on: SK-MEL-5
OVCAR-8 = tested on: OVCAR-8
OVCAR-3 = tested on: OVCAR-3
A498 = tested on: A498
RXF 393 = tested on: RXF 393
EKVX = tested on: EKVX
HL-60 = tested on: HL-60
SK-MEL-28 = tested on: SK-MEL-28
SF-268 = tested on: SF-268
IGROV-1 = tested on: IGROV-1
OVCAR-5 = tested on: OVCAR-5
RPMI-8226 = tested on: RPMI-8226
NCI/ADR-RES = tested on: NCI/ADR-RES
M14 = tested on: M14
COLO 205 = tested on: COLO 205
HCT-15 = tested on: HCT-15
HOP-92 = tested on: HOP-92
K562 = tested on: K562
MDA-MB-231 = tested on: MDA-MB-231
NCI-H226 = tested on: NCI-H226
NCI-H460 = tested on: NCI-H460
MOLT-4 = tested on: MOLT-4
CCRF-CEM = tested on: CCRF-CEM
UACC-62 = tested on: UACC-62
UO-31 = tested on: UO-31
NCI-H23 = tested on: NCI-H23
OVCAR-4 = tested on: OVCAR-4
SK-OV-3 = tested on: SK-OV-3

With `S=C(S)N1CCN(c2ccccc2)CC1` the GI50 (HT-29) was > 100 µM (inactive), the GI50 (BT-549) was > 100 µM (inactive) and the GI50 (Malme-3M) was > 100 µM (inactive). The GI50 (Hs-578T) was > 100 µM (inactive), the GI50 (786-0) was 45.1 µM (inactive) and the GI50 (CAKI-1) was > 100 µM (inactive). For the same compound, the GI50 (SF-539) was > 100 µM (inactive), the GI50 (DU-145) was > 100 µM (inactive) and the GI50 (SF-295) was > 100 µM (inactive). For the same compound, the GI50 (MDA-MB-435) was > 100 µM (inactive), the GI50 (SNB-75) was > 100 µM (inactive) and the GI50 (U-251) was 48.5 µM (inactive). The GI50 (SNB-19) was > 100 µM (inactive), the GI50 (SK-MEL-2) was 37.9 µM (inactive) and the GI50 (HCT-116) was 34.5 µM (inactive). The GI50 (PC-3) was > 100 µM (inactive), the GI50 (T47D) was > 100 µM (inactive) and the GI50 (A549) was > 100 µM (inactive). The GI50 (ACHN) was > 100 µM (inactive), the GI50 (SN12C) was > 100 µM (inactive) and the GI50 (HCC 2998) was 71.3 µM (inactive). For the same compound, the GI50 (LOX IMVI) was 32.9 µM (inactive), the GI50 (NCI-H522) was > 100 µM (inactive) and the GI50 (KM12) was > 100 µM (inactive). The GI50 (TK-10) was > 100 µM (inactive), the GI50 (HOP-62) was > 100 µM (inactive) and the GI50 (MCF7) was > 100 µM (inactive). The GI50 (UACC-257) was > 100 µM (inactive), the GI50 (MDA-N) was > 100 µM (inactive) and the GI50 (SW-620) was 71.9 µM (inactive). The GI50 (SK-MEL-5) was 20.7 µM (inactive), the GI50 (OVCAR-8) was > 100 µM (inactive) and the GI50 (OVCAR-3) was > 100 µM (inactive). The GI50 (A498) was > 100 µM (inactive), the GI50 (RXF 393) was > 100 µM (inactive) and the GI50 (EKVX) was > 100 µM (inactive). For the same compound, the GI50 (HL-60) was 9.31 µM (inactive), the GI50 (SK-MEL-28) was 45.9 µM (inactive) and the GI50 (SF-268) was 88.3 µM (inactive). The GI50 (IGROV-1) was > 100 µM (inactive), the GI50 (OVCAR-5) was > 100 µM (inactive) and the GI50 (RPMI-8226) was 27.5 µM (inactive). For the same compound, the GI50 (NCI/ADR-RES) was > 100 µM (inactive), the GI50 (M14) was > 100 µM (inactive) and the GI50 (COLO 205) was 57.5 µM (inactive). For the same compound, the GI50 (HCT-15) was over 100 µM, the GI50 (HOP-92) was > 100 µM (inactive) and the GI50 (K562) was 52.6 µM (inactive). The GI50 (MDA-MB-231) was > 100 µM (inactive).
For `COc1ccc(/C=N/n2c(C)n[nH]c2=O)c(OC)c1`, the GI50 (HT-29) was > 100 µM (inactive), the GI50 (BT-549) was > 100 µM (inactive) and the GI50 (Malme-3M) was > 100 µM (inactive). For the same compound, the GI50 (NCI-H226) was > 100 µM (inactive), the GI50 (NCI-H460) was > 100 µM (inactive) and the GI50 (Hs-578T) was 3.08 µM (inactive). For the same compound, the GI50 (MOLT-4) was 85.1 µM (inactive), the GI50 (786-0) was > 100 µM (inactive) and the GI50 (CAKI-1) was > 100 µM (inactive). For the same compound, the GI50 (SF-539) was > 100 µM (inactive), the GI50 (DU-145) was 71.6 µM (inactive) and the GI50 (SF-295) was > 100 µM (inactive). The GI50 (MDA-MB-435) was 90.4 µM (inactive), the GI50 (SNB-75) was > 100 µM (inactive) and the GI50 (U-251) was > 100 µM (inactive). For the same compound, the GI50 (SNB-19) was > 100 µM (inactive), the GI50 (SK-MEL-2) was > 100 µM (inactive) and the GI50 (HCT-116) was > 100 µM (inactive). The GI50 (CCRF-CEM) was > 100 µM (inactive), the GI50 (UACC-62) was 35.2 µM (inactive) and the GI50 (UO-31) was > 100 µM (inactive). For the same compound, the GI50 (PC-3) was > 100 µM (inactive), the GI50 (T47D) was > 100 µM (inactive) and the GI50 (A549) was > 100 µM (inactive). The GI50 (ACHN) was > 100 µM (inactive), the GI50 (SN12C) was > 100 µM (inactive) and the GI50 (HCC 2998) was > 100 µM (inactive). For the same compound, the GI50 (KM12) was > 100 µM (inactive), the GI50 (HOP-62) was > 100 µM (inactive) and the GI50 (NCI-H23) was > 100 µM (inactive). The GI50 (OVCAR-4) was > 100 µM (inactive), the GI50 (MCF7) was > 100 µM (inactive) and the GI50 (UACC-257) was > 100 µM (inactive). The GI50 (MDA-N) was > 100 µM (inactive), the GI50 (SW-620) was > 100 µM (inactive) and the GI50 (OVCAR-8) was > 100 µM (inactive). For the same compound, the GI50 (OVCAR-3) was > 100 µM (inactive), the GI50 (A498) was 57.9 µM (inactive) and the GI50 (SK-OV-3) was > 100 µM (inactive). The GI50 (EKVX) was 83 µM (inactive), the GI50 (SK-MEL-28) was > 100 µM (inactive) and the GI50 (SF-268) was > 100 µM (inactive). The GI50 (OVCAR-5) was > 100 µM (inactive), the GI50 (RPMI-8226) was > 100 µM (inactive) and the GI50 (NCI/ADR-RES) was > 100 µM (inactive). For the same compound, the GI50 (M14) was > 100 µM (inactive), the GI50 (COLO 205) was > 100 µM (inactive) and the GI50 (HCT-15) was over 100 µM. The GI50 (K562) was > 100 µM (inactive) and the GI50 (MDA-MB-231) was > 100 µM (inactive).
